The target of this test is T1, hKv3.1b (Homo sapiens, UniProt P48547).
T1 construct: expressed in transfected cells
T1 sequence (P48547 1-585 isoform P48547-2): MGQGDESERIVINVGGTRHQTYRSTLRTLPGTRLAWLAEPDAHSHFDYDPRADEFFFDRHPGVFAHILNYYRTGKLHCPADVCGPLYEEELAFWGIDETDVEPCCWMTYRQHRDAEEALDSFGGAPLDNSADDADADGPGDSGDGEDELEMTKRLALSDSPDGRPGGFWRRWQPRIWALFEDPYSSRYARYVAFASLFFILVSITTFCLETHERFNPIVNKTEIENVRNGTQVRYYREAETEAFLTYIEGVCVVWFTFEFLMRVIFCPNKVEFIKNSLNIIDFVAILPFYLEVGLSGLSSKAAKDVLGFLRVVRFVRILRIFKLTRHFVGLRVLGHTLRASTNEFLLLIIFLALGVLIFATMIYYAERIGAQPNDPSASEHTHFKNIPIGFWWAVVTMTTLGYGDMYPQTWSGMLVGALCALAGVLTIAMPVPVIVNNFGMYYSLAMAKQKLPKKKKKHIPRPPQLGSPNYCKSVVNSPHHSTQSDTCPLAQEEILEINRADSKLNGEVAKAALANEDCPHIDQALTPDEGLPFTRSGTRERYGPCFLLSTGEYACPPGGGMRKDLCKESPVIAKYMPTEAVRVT
Description: Automated whole-cell patch-clamp (QPatch-16x) on HEK-293 cells stably expressing hKv3.1b: shift of voltage threshold for channel activation. Particulars: HEK-293 hKv3.1b; for ECdelta5mV: concentration needed to shift the threshold 5 mV, read out from fitted concentration response curve; for Max Delta threshold: maximum absolute shift of activation threshold to more hyperpolarized potentials at the tested concentrations (0.37, 1.11, 3.33, 10, 30 μM). The format is cell-based. How it is done: HEK-293 cells stably expressing hKv3.1b was used for the experiments. Cells were cultured in DMEM medium supplemented with 10% Fetal Bovine Serum, 100 ug/mL Geneticidin and 100 u/mL Penicillin/Streptomycin (all from Gibco). Cells were grown to 80-90% confluency at 37° C. and 5% CO2. On the day of the experiment the cells were detached from the tissue culture flasks by Detachin and resuspended in serum free medium containing 25 mM HEPES and transferred to the cell hotel of the QPatch. The cells were used for experiments 0-5 hours after detachment.
Patch-clamp recordings were performed using the automated recording system QPatch-16x (Sophion Bioscience, Denmark). Cells were centrifuged, SFM removed and the cells were resuspended in extracellular buffer containing (in mM): 145 NaCl, 4 KCl, 1 MgCl2, 2 CaCl2, 10 HEPES and 10 glucose (added fresh on the day of experiment); pH 7.4 adjusted with NaOH, 305 mOsm adjusted with sucrose.
Single cell whole-cell recordings were carried out using an intracellular solution containing (in mM): 120 KCl, 32.25/10 KOH/EGTA, 5.374 CaCl2, 1.75 MgCl2, 10 HEPES, 4 Na2ATP (added fresh on the day), pH 7.2 adjusted with KOH, […] adjusted with sucrose. Cell membrane potentials were held at −80 mV and currents were evoked by voltage steps (200 ms duration) from −70 mV to +10 mV (in 10 mV increments).
Leak subtraction protocol was applied at −33% of the sweep amplitude, and serial resistance values were constantly monitored.
Any cell where serial resistance exceeded 25 MOhm, membrane resistance less than 200 MOhm or current size at −10 mV less than 200 pA was eliminated from the subsequent analysis.
Data analysis was performed using Sophion's QPatch assay software in combination with Microsoft Excel™ (Redmond, Wash., USA).
Current voltage relationships were plotted from the peak current at the individual voltage steps normalized to the vehicle addition at 10 mV. The voltage threshold for channel activation was defined as 5% activation of the peak current at 10 mV in presence of vehicle. The activity of the compounds was described as the ability to shift this current voltage relationship to more hyperpolarized potentials and is given as the maximum absolute shift possible at the tested concentrations (0.37, 1.11, 3.33, 10, 30 μM). Concentration response curves were plotted from the threshold shift at the individual concentrations and were fitted excel fit model 205 sigmodal dose-response model (fit=A+((B−A)/1+((C/x)^D)))), where A is the minimum value, B the maximum value, C the EC50 value and D the slope of the curve. The concentration needed to shift the threshold 5 mV was readout from this curve (ECdelta 5 mV).

For the compound `Cc1ccccc1S(=O)(=O)n1ccc(C(=O)NCc2ccn(C)n2)n1` [Compound 26, 1-(2-methylbenzene-1-sulfonyl)-N-[(1-methyl-1H-pyrazol-3-yl)methyl]-1H-pyrazole-3-carboxamide], the ECdelta5mV stood at 2900 nM and the “Max Delta threshold” value worked out at 16 mV.

On to `Cc1ccc(CNC(=O)c2ccn(S(=O)(=O)c3ccccc3C)n2)nc1` [Compound 27, 1-(2-methylbenzene-1-sulfonyl)-N-[(5-methylpyridin-2-yl)methyl]-1H-pyrazole-3-carboxamide], for which the ECdelta5mV is reported as 3300 nM and the “Max Delta threshold” value turned out to be 18 mV.

On to `Cc1ccccc1S(=O)(=O)n1ccc(C(=O)NCc2cnn(C)c2)n1` [Compound 28, 1-(2-methylbenzene-1-sulfonyl)-N-[(1-methyl-1H-pyrazol-4-yl)methyl]-1H-pyrazole-3-carboxamide], for which the ECdelta5mV was 2400 nM and the “Max Delta threshold” value came out at 22 mV.

In the case of `Cc1cc(CNC(=O)c2ccn(S(=O)(=O)c3ccccc3C)n2)on1` [Compound 29, 1-(2-methylbenzene-1-sulfonyl)-N-[(3-methyl-1,2-oxazol-5-yl)methyl]-1H-pyrazole-3-carboxamide], the ECdelta5mV is 3100 nM and the “Max Delta threshold” value is given as 22 mV.

On to `Cc1ccc(S(=O)(=O)n2ccc(C(=O)NCc3ncc(C)o3)n2)cc1` [Compound 30, 1-(4-methylbenzene-1-sulfonyl)-N-[(5-methyl-1,3-oxazol-2-yl)methyl]-1H-pyrazole-3-carboxamide], for which the ECdelta5mV amounted to 3400 nM and the “Max Delta threshold” value was 15 mV.

Turning to `Cc1cc(CNC(=O)c2ccn(S(=O)(=O)c3ccc(F)cc3)n2)on1` [Compound 31, 1-(4-fluorobenzene-1-sulfonyl)-N-[(3-methyl-1,2-oxazol-5-yl)methyl]-1H-pyrazole-3-carboxamide], the ECdelta5mV stood at 4100 nM and the “Max Delta threshold” value is reported as 13 mV.

For `Cc1ccc(S(=O)(=O)n2cc(C)c(C(=O)NCc3cnc(C)cn3)n2)cc1` [Compound 32, 4-methyl-1-(4-methylbenzene-1-sulfonyl)-N-[(5-methylpyrazin-2-yl)methyl]-1H-pyrazole-3-carboxamide], the ECdelta5mV was determined as 4300 nM and the “Max Delta threshold” value is listed as 12 mV.

In the case of `Cc1ccc(S(=O)(=O)n2ccc(C(=O)NCc3cnsc3)n2)cc1` [Compound 33, 1-(4-methylbenzene-1-sulfonyl)-N-[(1,2-thiazol-4-yl)methyl]-1H-pyrazole-3-carboxamide], the ECdelta5mV came to 2800 nM and the “Max Delta threshold” value is on record as 12 mV.

Turning to `Cc1ccc(CNC(=O)c2ccn(S(=O)(=O)c3ccc(F)cc3)n2)nc1` [Compound 34, 1-(4-fluorobenzene-1-sulfonyl)-N-[(5-methylpyridin-2-yl)methyl]-1H-pyrazole-3-carboxamide], the ECdelta5mV is 2800 nM and the “Max Delta threshold” value stood at 17 mV.

As for `Cn1ccc(CNC(=O)c2ccn(S(=O)(=O)c3ccc(F)cc3)n2)n1` [Compound 35, 1-(4-fluorobenzene-1-sulfonyl)-N-[(1-methyl-1H-pyrazol-3-yl)methyl]-1H-pyrazole-3-carboxamide], the ECdelta5mV is 4800 nM and the “Max Delta threshold” value is 12 mV.

Take `COc1ccc(S(=O)(=O)n2ccc(C(=O)NCc3ncc(C)o3)n2)cc1` [Compound 36, 1-(4-methoxybenzene-1-sulfonyl)-N-[(5-methyl-1,3-oxazol-2-yl)methyl]-1H-pyrazole-3-carboxamide]: the ECdelta5mV was 1500 nM and the “Max Delta threshold” value worked out at 17 mV.

Turning to `COc1ccc(S(=O)(=O)n2ccc(C(=O)NCc3ncc(C)cn3)n2)cc1` [Compound 37, 1-(4-methoxybenzene-1-sulfonyl)-N-[(5-methylpyrimidin-2-yl)methyl]-1H-pyrazole-3-carboxamide], the ECdelta5mV was found to be 2400 nM and the “Max Delta threshold” value came out at 27 mV.

As to `COc1ccc(S(=O)(=O)n2ccc(C(=O)NCc3cc(C)no3)n2)cc1` [Compound 38, 1-(4-methoxybenzene-1-sulfonyl)-N-[(3-methyl-1,2-oxazol-5-yl)methyl]-1H-pyrazole-3-carboxamide], the ECdelta5mV is given as 1100 nM and the “Max Delta threshold” value was found to be 21 mV.

Regarding `Cc1ccc(S(=O)(=O)n2ccc(C(=O)NCc3ccn(C)n3)n2)cc1` [Compound 39, 1-(4-methylbenzene-1-sulfonyl)-N-[(1-methyl-1H-pyrazol-3-yl)methyl]-1H-pyrazole-3-carboxamide], the ECdelta5mV was 1600 nM and the “Max Delta threshold” value came out at 21 mV.

As for `COc1ccc(S(=O)(=O)n2ccc(C(=O)NCc3ccc(C)cn3)n2)cc1` [Compound 40, 1-(4-methoxybenzene-1-sulfonyl)-N-[(5-methylpyridin-2-yl)methyl]-1H-pyrazole-3-carboxamide], the ECdelta5mV came out at 2000 nM and the “Max Delta threshold” value worked out at 21 mV.

Take `COc1ccc(S(=O)(=O)n2ccc(C(=O)NCc3cnn(C)c3)n2)cc1` [Compound 41, 1-(4-methoxybenzene-1-sulfonyl)-N-[(1-methyl-1H-pyrazol-4-yl)methyl]-1H-pyrazole-3-carboxamide]: the ECdelta5mV is 1200 nM and the “Max Delta threshold” value worked out at 25 mV.

Consider `COc1ccc(S(=O)(=O)n2ccc(C(=O)NCc3nc(C)no3)n2)cc1` [Compound 42, 1-(4-methoxybenzene-1-sulfonyl)-N-[(3-methyl-1,2,4-oxadiazol-5-yl)methyl]-1H-pyrazole-3-carboxamide], for which the ECdelta5mV amounted to 2000 nM and the “Max Delta threshold” value is on record as 18 mV.

Regarding `COc1ccc(S(=O)(=O)n2ccc(C(=O)NCc3cnccn3)n2)cc1` [Compound 43, 1-(4-methoxybenzene-1-sulfonyl)-N-[(pyrazin-2-yl)methyl]-1H-pyrazole-3-carboxamide], the ECdelta5mV is on record as 1600 nM and the “Max Delta threshold” value was found to be 25 mV.

`COc1ccc(S(=O)(=O)n2ccc(C(=O)NCc3ccn(C)n3)n2)cc1` [Compound 44, 1-(4-methoxybenzene-1-sulfonyl)-N-[(1-methyl-1H-pyrazol-3-yl)methyl]-1H-pyrazole-3-carboxamide]: the ECdelta5mV came out at 1400 nM and the “Max Delta threshold” value is recorded as 25 mV.

For `Cc1ccc(S(=O)(=O)n2ccc(C(=O)NCc3ncco3)n2)cc1` [Compound 45, 1-(4-methylbenzene-1-sulfonyl)-N-[(1,3-oxazol-2-yl)methyl]-1H-pyrazole-3-carboxamide], the ECdelta5mV is on record as 2800 nM and the “Max Delta threshold” value was determined as 15 mV.

In the case of `Cc1ccc(S(=O)(=O)n2ccc(C(=O)NCc3cn(C)nn3)n2)cc1` [Compound 46, 1-(4-methylbenzene-1-sulfonyl)-N-[(1-methyl-1H-1,2,3-triazol-4-yl)methyl]-1H-pyrazole-3-carboxamide], the ECdelta5mV was found to be 1800 nM and the “Max Delta threshold” value was determined as 22 mV.

As to `Cc1ccc(S(=O)(=O)n2ccc(C(=O)NCc3nncs3)n2)cc1` [Compound 47, 1-(4-methylbenzene-1-sulfonyl)-N-[(1,3,4-thiadiazol-2-yl)methyl]-1H-pyrazole-3-carboxamide], the ECdelta5mV came out at 3300 nM and the “Max Delta threshold” value is listed as 16 mV.

(Values after patent US20220220095A1, “N-((HETEROARYL)METHYL)-1-TOSYL-1H-PYRAZOLE-3-CARBOXAMIDE DERIVATIVES AS Kv3 POTASSIUM CHANNEL ACTIVATORS FOR TREATING NEUROLOGICAL AND [sequence] DISORDERS” (H. Lundbeck A/S, priority 2019, published 2022).)
